Experimental data from patent US20260042764A1, “COMPOSITIONS AND METHODS FOR INHIBITION OF KRAS” (TheRas, Inc., priority 2022, published 2026).

Legend:
GP2d cells (KRAS G12D) = test: Cell-based pERK HTRF assay in GP2d cell (Biological Example 2); conditions: GP2d (KRAS G12D) cells
Summary of the method: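 Cells grown in DMEM with 10% FBS were exposed to compound for 60 min at 0.25% DMSO, using a 9-point half-log series starting at 1 μM or 100 nM. Lysates were then mixed with d2 and Eu cryptate antibodies for 4–24 h at room temperature, and pERK was read by HTRF.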

[1] = molecular target: T1, Avi-KRAS G12D (2-169) GTP/RAF1 RBD-3xFLAG (51-131) (Homo sapiens, UniProt P01116, G12D); test: Raf1-KRAS G12D-GTP disruption HTRF assay (Biological Example 3); assay type: binding; conditions: KRAS G12D, GTP-loaded
T1 construct: Avi-KRAS G12D (2-169)
T1 sequence (P01116 2-169 isoform P01116-2 G12D): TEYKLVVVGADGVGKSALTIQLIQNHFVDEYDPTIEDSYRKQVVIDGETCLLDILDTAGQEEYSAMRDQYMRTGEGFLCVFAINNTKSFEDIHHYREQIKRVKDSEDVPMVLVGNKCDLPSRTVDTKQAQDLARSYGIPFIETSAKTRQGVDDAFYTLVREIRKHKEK
Procedure: (§1) Biological Example 3: Disrupting RAS-Effector Binding HTRF Assay
(§2) A protein:protein interaction (PPI) Homogeneous Time Resolved Fluorescence (HTRF) assay was used to determine the effectiveness of compounds in disrupting KRAS protein and effector (RAF1) binding.
(§3) The HTRF assay used the following reagents and proteins: (i) 50 nM Avi-KRAS G12D (2-169) GTP/RAF1 RBD-3xFLAG (51-131): (ii) 50 nM Avi-KRAS G12C (2-169) GTP/RAF1 RBD-3xFLAG (51-131): (iii) 50 nM Avi-KRAS G12V (2-169) GTP/RAF1 RBD-3xFLAG (51-131); (iv) 50 nM Avi-KRAS WT (2-169) GTP/RAF1 RBD-3xFLAG (51-131); and (v) 75 nM 3xFLAG-RAF1 RBD (51-131)-Avi. The assay buffer included: 50 mM Tris pH 7.5 (Invitrogen, 15567-027), 100 mM NaCl (Sigma, S5150-IL), 5 mM MgCl2 (Sigma, 63069), 0.1% BSA (Sigma, A7030), 0.01% Tween 20 (Sigma, P7949), 10% DMSO (Cell Signaling, 12611). The bead buffer included: 50 mM Tris pH 7.5 (Invitrogen, 15567-027), 0.01% Tween 20 (Sigma, P7949). An assay volume of 20 μL was used in a 384 well plate-low volume format. Compound titration: 30-0.005 μM, 3x dilution series.
(§4) The HTRF assay employed the following protocol:
(§5) Compounds were dispensed in assay plate (384-well, Grenier Bio-One #784075) using Echo (model 555) with dose response settings: 200 nL final volume, titration from 30 μM as a 10-point dilution series. Proteins and HTRF reagents were mixed and dispensed onto plates, 20 μL per well, and then incubated for 1 h at room temperature, with 700 rpm shaking.
(§6) Plates were analyzed on an Envision plate reader using the following setting: Excitation 320 nm, Bandwidth 75 nm; Emission 615 nm, Bandwidth 85 nm; Gain 100%; Flashes 100; Lag 60 μs. Data was reported as percentage of activity, with DMSO as 100%. Data was plotted and analyzed using Prism 8.
(§7) The biochemical Raf1-KRAS G12D/G12V/G12C/WT-GTP disruption assay IC50 of selected compounds described herein are shown in Table 12.

[2] = molecular target: T2, Avi-KRAS G12C (2-169) GTP/RAF1 RBD-3xFLAG (51-131) (Homo sapiens, UniProt P01116, G12C); test: Raf1-KRAS G12C-GTP disruption HTRF assay (Biological Example 3); assay type: binding; conditions: KRAS G12C, GTP-loaded
T2 construct: Avi-KRAS G12C (2-169)
T2 sequence (P01116 2-169 isoform P01116-2 G12C): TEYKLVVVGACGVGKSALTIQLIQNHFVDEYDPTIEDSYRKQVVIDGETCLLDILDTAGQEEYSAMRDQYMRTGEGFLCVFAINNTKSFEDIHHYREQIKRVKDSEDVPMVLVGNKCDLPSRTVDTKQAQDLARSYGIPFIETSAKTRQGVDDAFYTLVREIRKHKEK
Procedure: as §1, §2, §3, §4, §5, §6, §7

[3] = molecular target: T3, Avi-KRAS G12V (2-169) GTP/RAF1 RBD-3xFLAG (51-131) (Homo sapiens, UniProt P01116, G12V); test: Raf1-KRAS G12V-GTP disruption HTRF assay (Biological Example 3); assay type: binding; conditions: KRAS G12V, GTP-loaded
T3 construct: Avi-KRAS G12V (2-169)
T3 sequence (P01116 2-169 isoform P01116-2 G12V): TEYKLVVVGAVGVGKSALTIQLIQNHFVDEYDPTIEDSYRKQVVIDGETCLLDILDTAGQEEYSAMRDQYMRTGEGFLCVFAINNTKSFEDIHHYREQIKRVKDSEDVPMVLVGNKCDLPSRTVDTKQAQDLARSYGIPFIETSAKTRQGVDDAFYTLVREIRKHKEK
Procedure: as §1, §2, §3, §4, §5, §6, §7

[4] = molecular target: T4, Avi-KRAS WT (2-169) GTP/RAF1 RBD-3xFLAG (51-131) (Homo sapiens, UniProt P01116); test: Raf1-KRAS WT-GTP disruption HTRF assay (Biological Example 3); assay type: binding; conditions: KRAS WT, GTP-loaded
T4 construct: Avi-KRAS WT (2-169)
T4 sequence (P01116 2-169 isoform P01116-2): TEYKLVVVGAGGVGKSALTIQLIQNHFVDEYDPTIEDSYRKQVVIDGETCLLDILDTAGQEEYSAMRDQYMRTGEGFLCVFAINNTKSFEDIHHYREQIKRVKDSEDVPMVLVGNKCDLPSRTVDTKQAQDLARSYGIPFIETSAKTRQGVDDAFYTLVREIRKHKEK
Procedure: as §1, §2, §3, §4, §5, §6, §7

SW620 cells (KRAS G12V) = test: Cell-based pERK HTRF assay in SW620 cell (Biological Example 4)
Summary of the method: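 In SW620 cells grown in RPMI with 10% FBS, a 4 h compound treatment (0.25% DMSO, 9-point curve from 1 μM) preceded lysis. Phospho-ERK levels were then read by time-resolved FRET at 615 nm emission.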

[5] = Homo sapiens, SW-620, SW620 (KRAS G12V) cells

Row | Compound | IC50 (GP2d cells (KRAS G12D)) [nM] | IC50 [1] [nM] | IC50 [2] [nM] | IC50 [3] [nM] | IC50 [4] [nM] | IC50 (SW620 cells (KRAS G12V); SW620 (KRAS G12V) cells) [nM] | IC50 (GP2d cells (KRAS G12D); GP2d) [nM] | IC50 (SW620 cells (KRAS G12V); [5]) [nM]
1 | CCN(c1nc(OC[C@@]23CCCN2C[C@H](F)C3)nc2c(F)c(-c3ccc(F)c4sc(N)c(C#N)c34)c(C(F)(F)F)cc12)[C@H]1C[C@@H](C(=O)N(C)C)C1 (atropisomer, axis not shown) [Compound 957] | < 100 | 100 to 1000 | 1000 to 10000 | 1000 to 10000 | 1000 to 10000 | < 100 | – | –
2 | CCN(c1nc(OC[C@@]23CCCN2C[C@H](F)C3)nc2c(F)c(-c3ccc(F)c4sc(N)c(C#N)c34)c(C(F)(F)F)cc12)[C@H]1C[C@H](COC)N(C(=O)C2CC2(F)F)C1 (stereo partly drawn) [Compound 861] | – | 100 to 1000 | 100 to 1000 | 100 to 1000 | 100 to 1000 | – | < 100 | < 100
3 | [2H][C@]1(N(CC)c2nc(OC[C@@]34CCCN3C[C@H](F)C4)nc3c(F)c(-c4ccc(F)c5sc(N)c(C#N)c45)c(C(F)(F)F)cc23)CCN(C(=O)N(C)C)C1 (atropisomer, axis not shown) [Compound 859] | – | 100 to 1000 | 100 to 1000 | 100 to 1000 | 100 to 1000 | – | < 100 | < 100
4 | CCN(c1nc(OC[C@@]23CCCN2C[C@H](F)C3)nc2c(F)c(-c3ccc(F)c4sc(N)c(C#N)c34)c(C(F)(F)F)cc12)[C@H]1CCN(C(=O)O[C@H]2CO[C@H]3OCC[C@H]32)C1 (atropisomer, axis not shown) [Compound 816] | – | 100 to 1000 | ≤ 100 | 100 to 1000 | 100 to 1000 | – | < 100 | < 100
5 | CCN(c1nc(OC[C@@]23CCCN2C[C@H](F)C3)nc2c(F)c(-c3ccc(F)c4sc(N)c(C#N)c34)c(C(F)(F)F)cc12)[C@H]1CC[C@@](C)(C(=O)N(C)C)C1 (atropisomer, axis not shown) [Compound 873] | – | 1000 to 10000 | 1000 to 10000 | 1000 to 10000 | 100 to 1000 | – | < 100 | < 100
6 | CN(Cc1ncco1)c1nc(OC[C@@]23CCCN2C[C@H](F)C3)nc2c(F)c(-c3ccc(F)c4sc(N)c(C#N)c34)c(C(F)(F)F)cc12 (atropisomer, axis not shown) [Compound 885] | – | 100 to 1000 | 100 to 1000 | 100 to 1000 | 1000 to 10000 | – | < 100 | < 100
7 | CCN(c1nc(OC[C@@]23CCCN2C[C@H](F)C3)nc2c(F)c(-c3ccc(F)c4sc(N)c(C#N)c34)c(C(F)(F)F)cc12)[C@H]1C[C@@H](C)N(C(=O)OC2CC(OC)C2)C1 (stereo partly drawn) [Compound 895] | – | 100 to 1000 | 100 to 1000 | 100 to 1000 | 1000 to 10000 | – | < 100 | < 100
8 | CCN(c1nc(OC[C@@]23CCCN2C[C@H](F)C3)nc2c(F)c(-c3ccc(F)c4sc(N)c(C#N)c34)c(C(F)(F)F)cc12)[C@H]1CCN(C(=O)[C@@H]2CC2(F)F)[C@H]1C (atropisomer, axis not shown) [Compound 887] | – | 1000 to 10000 | 1000 to 10000 | 1000 to 10000 | 1000 to 10000 | – | < 100 | 100 to 1000
9 | CCN(c1nc(OC[C@@]23CCCN2C[C@H](F)C3)nc2c(F)c(-c3ccc(F)c4sc(N)c(C#N)c34)c(C(F)(F)F)cc12)[C@H]1C[C@H](COC)N(C(=O)N2CC(F)C2)C1 [Compound 875] | – | 1000 to 10000 | 100 to 1000 | 100 to 1000 | 1000 to 10000 | – | < 100 | < 100
10 | CCN(c1nc(OC[C@@]23CCCN2C[C@H](F)C3)nc2c(F)c(-c3ccc(F)c4sc(N)c(C#N)c34)c(C(F)(F)F)cc12)[C@H]1C[C@H](COC)N(C(=O)[C@H]2C[C@H]2F)C1 (atropisomer, axis not shown) [Compound 847] | – | 100 to 1000 | 100 to 1000 | 100 to 1000 | 100 to 1000 | – | < 100 | < 100
11 | CCN(c1nc(OC[C@@]23CCCN2C[C@H](F)C3)nc2c(F)c(-c3ccc(F)c4sc(N)c(C#N)c34)c(C(F)(F)F)cc12)[C@H]1CCN(C(=O)c2cnc(Cl)s2)C1 (atropisomer, axis not shown) [Compound 905] | – | 100 to 1000 | 100 to 1000 | 100 to 1000 | 1000 to 10000 | – | < 100 | < 100
12 | N#Cc1c(N)sc2c(F)ccc(-c3c(C(F)(F)F)cc4c(N(CCF)[C@H]5CCN(C(=O)[C@@H]6CC6(F)F)C5)nc(OC[C@@]56CCCN5C[C@H](F)C6)nc4c3F)c12 (atropisomer, axis not shown) [Compound 843] | – | 100 to 1000 | 100 to 1000 | 100 to 1000 | 1000 to 10000 | – | < 100 | < 100
13 | N#Cc1c(N)sc2c(F)ccc(-c3c(C(F)(F)F)cc4c(N5Cc6ccncc6C5)nc(OC[C@@]56CCCN5C[C@H](F)C6)nc4c3F)c12 [Compound 946] | – | 1000 to 10000 | 1000 to 10000 | 1000 to 10000 | 1000 to 10000 | – | < 100 | 100 to 1000
14 | CCN(c1nc(OC[C@@]23CCCN2C[C@H](F)C3)nc2c(F)c(-c3ccc(F)c4sc(N)c(C#N)c34)c(C(F)(F)F)cc12)[C@H]1CCN(C(=O)c2nccs2)C1 (atropisomer, axis not shown) [Compound 927] | – | 100 to 1000 | 100 to 1000 | 100 to 1000 | 100 to 1000 | – | < 100 | < 100
15 | CCN(c1nc(OC[C@@]23CCCN2C[C@H](F)C3)nc2c(F)c(-c3ccc(F)c4sc(N)c(C#N)c34)c(C(F)(F)F)cc12)[C@H]1C[C@H](COC)N(C(=O)[C@@H]2C[C@H]2F)C1 (atropisomer, axis not shown) [Compound 848] | – | 100 to 1000 | 100 to 1000 | 100 to 1000 | 100 to 1000 | – | < 100 | < 100
16 | CCN(c1nc(OC[C@@]23CCCN2C[C@H](F)C3)nc2c(F)c(-c3ccc(F)c4sc(N)c(C#N)c34)c(C(F)(F)F)cc12)[C@@H]1CO[C@H]2OCC[C@H]21 (atropisomer, axis not shown) [Compound 966] | – | 100 to 1000 | 100 to 1000 | 100 to 1000 | 100 to 1000 | – | < 100 | < 100
17 | N#Cc1c(N)sc2c(F)ccc(-c3c(C(F)(F)F)cc4c(N5CCC(c6cccnc6)C5)nc(OC[C@@]56CCCN5C[C@H](F)C6)nc4c3F)c12 (stereo partly drawn) [Compound 943] | – | > 10000 | > 10000 | > 10000 | > 10000 | – | < 100 | < 100
18 | CCN(c1nc(OC[C@@]23CCCN2C[C@H](F)C3)nc2c(F)c(-c3ccc(F)c4sc(N)c(C#N)c34)c(C(F)(F)F)cc12)[C@H]1CC[C@](C)(C(=O)N(C)C)C1 (atropisomer, axis not shown) [Compound 894] | – | 1000 to 10000 | 1000 to 10000 | 1000 to 10000 | 1000 to 10000 | – | < 100 | < 100
